# Results taken from paper PMC5882164, “A novel calcimimetic agent, evocalcet (MT-4580/KHK7580), suppresses the parathyroid cell function with little effect on the gastrointestinal tract or CYP isozymes in vivo and in vitro” (PLoS ONE, 2018).
# pIC50: −log10 of the molar value. Where “and” joins values, the source holds several entries; their conditions need not be identical. Equal entries are not always repeated.
# Columns and labels:
# serum PTH = test: 5/6 nephrectomized rats study: serum PTH level; format: in vivo, rat; conditions: 5/6 Nx rats; for Serum PTH levels before (day 0) and 24 h after evocalcet administration, Mean / Serum PTH levels after the first administration, Mean: group mean; for Serum PTH levels before (day 0) and 24 h after evocalcet administration: individual rats
# Protocol: Rats were 5/6 nephrectomized in two steps. Under anesthesia (pentobarbital, 50 mg/kg; intraperitoneally) and analgesia (lidocaine; topically), two-thirds of the left kidney was removed, and then the right kidney was removed after a seven-day interval. Seven days after the completion of 5/6 nephrectomy, the FR-2 diet was changed to a high-phosphate diet, containing 0.6% calcium and 0.9% phosphate (Oriental Yeast Co., Ltd., Tokyo, Japan). Approximately 2 weeks after the initiation of the high-phosphate diet, the 5/6 Nx rats were divided into five groups (n = 12/group) matched in terms of their body weight as well as their blood urea nitrogen (BUN) and serum PTH and calcium levels.
# In the single-dose study, blood samples were collected from the tail vein before and at 0.5, 2, 4, 8, 24, 48, and 72 h after the oral administration of vehicle (0.5% methyl cellulose solution) or evocalcet (0.03, 0.1, 0.3, or 1 mg/kg). In the repeated-dose study, vehicle or evocalcet was orally administered to the respective groups once daily for 14 days. Blood samples were obtained from the tail vein before the first administration and after the seventh and last administrations.
# The serum PTH level was measured using a Rat Intact PTH ELISA kit (Immutopics, Inc., San Clemente, CA). The serum calcium, phosphate and BUN levels were measured using an auto analyzer (Hitachi High-Technologies Corporation., Tokyo, Japan) or the following test kits: the Calcium E-test WAKO, the Phospha C-test WAKO, or the Blood Urea nitrogen B-test WAKO (Wako Pure Chemical Industries, Ltd., Osaka, Japan).
# CYP1A2 = molecular target: T1, CYP1A2 (Homo sapiens, UniProt P05177); test: CYP inhibition assay in human liver microsomes; format: in vitro ADME; conditions: no pre-incubation, read-out: IC50 direct inhibition of CYP1A2
# T1 sequence (P05177 1-516): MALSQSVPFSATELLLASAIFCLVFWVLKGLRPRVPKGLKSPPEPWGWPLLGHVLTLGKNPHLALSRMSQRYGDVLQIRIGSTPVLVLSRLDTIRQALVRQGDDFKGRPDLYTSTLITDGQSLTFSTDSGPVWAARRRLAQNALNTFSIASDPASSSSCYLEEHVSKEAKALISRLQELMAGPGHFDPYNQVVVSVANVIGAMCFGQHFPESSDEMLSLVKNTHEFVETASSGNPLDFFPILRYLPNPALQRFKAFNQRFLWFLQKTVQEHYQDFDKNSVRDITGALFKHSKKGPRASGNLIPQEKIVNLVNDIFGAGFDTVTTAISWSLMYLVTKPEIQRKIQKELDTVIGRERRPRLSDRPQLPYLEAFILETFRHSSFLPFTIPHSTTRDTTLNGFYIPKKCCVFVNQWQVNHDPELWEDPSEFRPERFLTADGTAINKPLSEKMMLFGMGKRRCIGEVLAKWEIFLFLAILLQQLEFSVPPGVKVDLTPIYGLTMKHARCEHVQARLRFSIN
# Protocol: (§1) Each CYP substrate was incubated with human liver microsomes in the absence or presence of evocalcet, and the inhibition of evocalcet for each CYP isozyme was measured.
# CYP2C19 = molecular target: T2, CYP2C19 (Homo sapiens, UniProt P33261); test: CYP inhibition assay in human liver microsomes; format: in vitro ADME; conditions: no pre-incubation, read-out: IC50 direct inhibition of CYP2C19
# T2 construct: from tissue; host or cells: human liver microsomes
# Protocol: as §1
# CYP2C9 = molecular target: T3, CYP2C9 (Homo sapiens, UniProt P11712); test: CYP inhibition assay in human liver microsomes; format: in vitro ADME; conditions: no pre-incubation, read-out: IC50 direct inhibition of CYP2C9
# T3 construct: from tissue; host or cells: human liver microsomes
# Protocol: as §1
# T2 sequence (P33261 whole entry): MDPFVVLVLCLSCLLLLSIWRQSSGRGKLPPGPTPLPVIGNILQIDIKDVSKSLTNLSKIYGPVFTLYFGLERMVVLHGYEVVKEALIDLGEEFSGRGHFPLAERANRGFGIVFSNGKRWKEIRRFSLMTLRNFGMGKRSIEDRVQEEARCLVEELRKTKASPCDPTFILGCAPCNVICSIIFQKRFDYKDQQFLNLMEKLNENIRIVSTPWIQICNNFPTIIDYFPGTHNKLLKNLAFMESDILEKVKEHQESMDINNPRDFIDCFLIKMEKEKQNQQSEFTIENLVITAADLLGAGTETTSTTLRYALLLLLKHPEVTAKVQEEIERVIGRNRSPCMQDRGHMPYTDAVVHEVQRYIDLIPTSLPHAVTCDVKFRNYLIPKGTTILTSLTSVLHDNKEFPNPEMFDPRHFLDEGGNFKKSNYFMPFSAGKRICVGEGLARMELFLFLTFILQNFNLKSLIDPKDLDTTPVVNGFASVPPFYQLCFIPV
# T3 sequence (P11712 whole entry): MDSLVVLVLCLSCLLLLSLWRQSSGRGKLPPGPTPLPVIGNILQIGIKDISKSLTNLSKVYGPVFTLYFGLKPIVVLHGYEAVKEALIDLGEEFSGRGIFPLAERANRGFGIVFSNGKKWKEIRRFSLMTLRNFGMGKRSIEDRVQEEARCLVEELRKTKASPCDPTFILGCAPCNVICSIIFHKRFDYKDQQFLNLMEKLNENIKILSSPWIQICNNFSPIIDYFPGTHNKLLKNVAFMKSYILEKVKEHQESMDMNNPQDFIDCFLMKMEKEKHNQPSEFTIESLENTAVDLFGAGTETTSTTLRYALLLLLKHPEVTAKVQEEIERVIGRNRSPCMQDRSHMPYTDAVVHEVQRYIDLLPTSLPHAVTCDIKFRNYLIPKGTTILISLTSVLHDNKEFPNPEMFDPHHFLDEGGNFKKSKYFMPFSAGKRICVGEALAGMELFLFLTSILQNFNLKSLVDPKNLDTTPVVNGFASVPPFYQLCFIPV
compound,measurement,setting,value
C[C@@H](N[C@H]1CCN(c2ccc(CC(=O)O)cc2)C1)c1cccc2ccccc12 [evocalcet],Serum PTH levels after the first administration,"serum PTH; 0.03 mg/kg, 0 h, group mean of 12 rats",2235.149
same,Serum PTH levels after the first administration,"serum PTH; 0.03 mg/kg, 0 h, individual rat",3146.838 and 3130.460 and 2411.903 and 1952.597 and 3363.037 and 1097.629
same,Serum PTH levels after the first administration,"serum PTH; 0.03 mg/kg, 0.5 h, group mean of 12 rats",2132.775
same,Serum PTH levels after the first administration,"serum PTH; 0.03 mg/kg, 0.5 h, individual rat",4101.960 and 5220.639 and 2506.611 and 3090.422 and 3558.006 and 125.411
same,Serum PTH levels after the first administration,"serum PTH; 0.03 mg/kg, 2 h, group mean of 12 rats",2186.293
same,Serum PTH levels after the first administration,"serum PTH; 0.03 mg/kg, 2 h, individual rat",4890.509 and 4068.711 and 2185.504 and 3005.600 and 4664.020 and 345.560
same,Serum PTH levels after the first administration,"serum PTH; 0.03 mg/kg, 4 h, group mean of 12 rats",2269.553
same,Serum PTH levels after the first administration,"serum PTH; 0.03 mg/kg, 4 h, individual rat",4679.877 and 4835.119 and 2331.859 and 3883.490 and 3137.288 and 547.391
same,Serum PTH levels after the first administration,"serum PTH; 0.03 mg/kg, 8 h, group mean of 12 rats",2414.885
same,Serum PTH levels after the first administration,"serum PTH; 0.03 mg/kg, 8 h, individual rat",5964.855 and 4334.746 and 2555.658 and 4291.517 and 2662.474 and 769.912
same,Serum PTH levels after the first administration,"serum PTH; 0.03 mg/kg, 24 h, group mean of 12 rats",2792.495
same,Serum PTH levels after the first administration,"serum PTH; 0.03 mg/kg, 24 h, individual rat",4890.842 and 5921.359 and 2295.822 and 3334.469 and 3685.692 and 634.649
same,"Serum PTH levels before (day 0) and 24 h after evocalcet administration, Mean","serum PTH; 0.03 mg/kg, day 0 (Before)",2235.149
same,Serum PTH levels before (day 0) and 24 h after evocalcet administration,"serum PTH; 0.03 mg/kg, day 0 (Before), 0.03 mg/kg",3146.838 and 3130.460 and 2411.903 and 1952.597 and 3363.037 and 1097.629 and 2977.436 and 1709.257 and 736.362 and 1492.356 and 1948.854 and 2855.064
same,"Serum PTH levels before (day 0) and 24 h after evocalcet administration, Mean","serum PTH; 0.03 mg/kg, day 7 (24 h)",1440.297
same,Serum PTH levels before (day 0) and 24 h after evocalcet administration,"serum PTH; 0.03 mg/kg, day 7 (24 h), 0.03 mg/kg",175.760 and 1003.083 and 756.245 and 2355.229 and 3361.800 and 1990.106 and 170.127 and 208.561 and 3498.638 and 332.146 and 1090.222 and 2341.644
same,"Serum PTH levels before (day 0) and 24 h after evocalcet administration, Mean","serum PTH; 0.03 mg/kg, day 14 (24 h)",2303.348
same,Serum PTH levels before (day 0) and 24 h after evocalcet administration,"serum PTH; 0.03 mg/kg, day 14 (24 h), 0.03 mg/kg",4997.693 and 3995.599 and 1879.977 and 3492.362 and 3523.261 and 468.569 and 465.344 and 1621.501 and 608.285 and 1702.644 and 1919.474 and 2965.469
same,Serum PTH levels after the first administration,"serum PTH; 0.1 mg/kg, 0 h, individual rat",2191.024 and 4476.799 and 4734.069 and 3561.219 and 1608.879 and 3394.625 and 2344.750 and 2855.532 and 1478.317 and 2515.323
same,Serum PTH levels after the first administration,"serum PTH; 0.1 mg/kg, 0.5 h, individual rat",697.065 and 166.990 and 643.814 and 188.145 and 87.713 and 1427.254 and 2994.134 and 497.193 and 52.922 and 216.107
same,Serum PTH levels after the first administration,"serum PTH; 0.1 mg/kg, 2 h, individual rat",921.070 and 152.688 and 1274.188 and 268.767 and 48.850 and 837.618 and 3213.565 and 734.412 and 45.617 and 171.332
same,Serum PTH levels after the first administration,"serum PTH; 0.1 mg/kg, 4 h, individual rat",1346.496 and 622.337 and 1091.618 and 881.643 and 178.355 and 1445.792 and 3885.042 and 1344.283 and 585.655 and 429.439
same,Serum PTH levels after the first administration,"serum PTH; 0.1 mg/kg, 8 h, individual rat",1602.872 and 1239.629 and 2688.836 and 1069.819 and 616.193 and 1780.899 and 3893.446 and 2481.366 and 541.217
same,Serum PTH levels after the first administration,"serum PTH; 0.1 mg/kg, 24 h, individual rat",2327.970 and 3050.546 and 5188.511 and 1270.996 and 1634.838 and 3384.643 and 3324.854 and 2293.418 and 169.556
same,"Serum PTH levels before (day 0) and 24 h after evocalcet administration, Mean","serum PTH; 0.1 mg/kg, day 0 (Before)",3005.615
same,Serum PTH levels before (day 0) and 24 h after evocalcet administration,"serum PTH; 0.1 mg/kg, day 0 (Before), 0.1 mg/kg",2191.024 and 4476.799 and 4734.069 and 3561.219 and 1608.879 and 3394.625 and 2344.750 and 2855.532 and 1478.317 and 2515.323 and 3938.529 and 2968.311
same,"Serum PTH levels before (day 0) and 24 h after evocalcet administration, Mean","serum PTH; 0.1 mg/kg, day 7 (24 h)",2408.528
same,Serum PTH levels before (day 0) and 24 h after evocalcet administration,"serum PTH; 0.1 mg/kg, day 7 (24 h), 0.1 mg/kg",1659.111 and 1709.141 and 1368.206 and 692.961 and 2049.745 and 3311.770 and 3632.825 and 4438.329 and 2720.020 and 2668.995 and 3977.154 and 674.076
same,"Serum PTH levels before (day 0) and 24 h after evocalcet administration, Mean","serum PTH; 0.1 mg/kg, day 14 (24 h)",1395.021
same,Serum PTH levels before (day 0) and 24 h after evocalcet administration,"serum PTH; 0.1 mg/kg, day 14 (24 h), 0.1 mg/kg",1994.437 and 1611.022 and 2757.774 and 1453.572 and 176.238 and 2214.760 and 1548.955 and 1921.086 and 242.603 and 1372.697 and 1155.599 and 291.504
same,"Serum PTH levels before (day 0) and 24 h after evocalcet administration, Mean","serum PTH; 0.3 mg/kg, day 0 (before)",2359.764
same,Serum PTH levels before (day 0) and 24 h after evocalcet administration,"serum PTH; 0.3 mg/kg, day 0 (before), 0.3 mg/kg",1632.745 and 2446.532 and 2253.029 and 2449.574 and 3238.325 and 2017.644
same,"Serum PTH levels before (day 0) and 24 h after evocalcet administration, Mean","serum PTH; 0.3 mg/kg, day 7 (24 h)",387.934
same,Serum PTH levels before (day 0) and 24 h after evocalcet administration,"serum PTH; 0.3 mg/kg, day 7 (24 h), 0.3 mg/kg",516.033 and 370.580 and 777.450 and 52.037 and 15.500 and 862.269
same,"Serum PTH levels before (day 0) and 24 h after evocalcet administration, Mean","serum PTH; 0.3 mg/kg, day 14 (24 h)",440.352
same,Serum PTH levels before (day 0) and 24 h after evocalcet administration,"serum PTH; 0.3 mg/kg, day 14 (24 h), 0.3 mg/kg",134.323 and 160.654 and 218.153 and 43.180 and 221.109 and 481.197
same,"Serum PTH levels after the first administration, Mean","serum PTH; 0.3 mg/kg, time 0 h",2359.764
same,"Serum PTH levels after the first administration, Mean","serum PTH; 0.3 mg/kg, time 0.5 h",200.671
same,"Serum PTH levels after the first administration, Mean","serum PTH; 0.3 mg/kg, time 2 h",273.789
same,"Serum PTH levels after the first administration, Mean","serum PTH; 0.3 mg/kg, time 4 h",614.302
same,"Serum PTH levels after the first administration, Mean","serum PTH; 0.3 mg/kg, time 8 h",1297.802
same,"Serum PTH levels after the first administration, Mean","serum PTH; 0.3 mg/kg, time 24 h",1196.310
same,"Serum PTH levels before (day 0) and 24 h after evocalcet administration, Mean","serum PTH; 1 mg/kg, day 0 (before)",2488.277
same,Serum PTH levels before (day 0) and 24 h after evocalcet administration,"serum PTH; 1 mg/kg, day 0 (before), 1 mg/kg",3077.112 and 1497.503 and 1942.068 and 2386.399
same,"Serum PTH levels before (day 0) and 24 h after evocalcet administration, Mean","serum PTH; 1 mg/kg, day 7 (24 h)",641.383
same,Serum PTH levels before (day 0) and 24 h after evocalcet administration,"serum PTH; 1 mg/kg, day 7 (24 h), 1 mg/kg",740.010 and 15.500 and 123.742
same,"Serum PTH levels before (day 0) and 24 h after evocalcet administration, Mean","serum PTH; 1 mg/kg, day 14 (24 h)",594.302
same,Serum PTH levels before (day 0) and 24 h after evocalcet administration,"serum PTH; 1 mg/kg, day 14 (24 h), 1 mg/kg",671.158 and 155.818 and 37.909
same,"Serum PTH levels after the first administration, Mean","serum PTH; 1 mg/kg, time 0 h",2488.277
same,"Serum PTH levels after the first administration, Mean","serum PTH; 1 mg/kg, time 0.5 h",86.013
same,"Serum PTH levels after the first administration, Mean","serum PTH; 1 mg/kg, time 2 h",672.764
same,"Serum PTH levels after the first administration, Mean","serum PTH; 1 mg/kg, time 4 h",302.274
same,"Serum PTH levels after the first administration, Mean","serum PTH; 1 mg/kg, time 8 h",788.660
same,"Serum PTH levels after the first administration, Mean","serum PTH; 1 mg/kg, time 24 h",864.186
same,Doses that steadily decreased the serum PTH level,"serum PTH; once daily oral for 14 days, 24 h after administration on days 7 and 14",≥ 0.3 mg/kg
same,Doses that significantly decreased the serum PTH level,"serum PTH; single oral dose, vs vehicle group",≥ 0.1 mg/kg
same,pIC50,CYP1A2,< 4.30
same,pIC50,CYP2C19,< 4.30
same,pIC50,CYP2C9,< 4.30
